# Measured values as given in patent US11987568B2, “Allosteric inhibitor of WEE1 kinase” (H. LEE MOFFITT CANCER CENTER AND RESEARCH INSTITUTE, INC., priority 2018, dated 2024).
# Values joined by “and” are separate entries in the source; they are usually repeats but may differ in a detail not shown here. Identical values can stand only once.
# Columns and labels:
# [1] = tested on: LAPC4 cells; assay: LAPC4 cell proliferation, trypan blue exclusion assay; assay type: cell-based; conditions: Homo sapiens, 96 hr, viable cells by trypan blue exclusion
# Source text: FIGS. 2A-2B show identification of 3 distinct types of inhibitors. […] In addition, the lysates were also subjected to by immunoblotting with […]-Cdc2 or actin antibodies (middle and bottom panels). […] The number vehicle treated cells were used as control and percent of surviving cells were plotted. […] The number of vehicle treated cells were used as control and percent of surviving cells were plotted. […] The number vehicle treated cells were used as control and percent of surviving cells were plotted. 7 of these epigenetic inhibitors in various assays such as cell proliferation assay, an in vitro kinase assay were performed and WEE1 autophosphorylation in vivo was determined. Prostate cancer derived LAPC4 cells were treated with inhibitors and its effect on cell proliferation was examined.
# [2] = tested on: histone H2B Tyr37-phopshorylation (pY37-H2B); assay: WEE1 epigenetic activity in cells: pY37-H2B immunoprecipitation/immunoblot; assay type: cell-based, human; conditions: LNCaP cells
# Source text: FIGS. 2A-2B show identification of 3 distinct types of inhibitors. […] In addition, the lysates were also subjected to by immunoblotting with pY15-Cdc2 or actin antibodies (middle and bottom panels). […] The number vehicle treated cells were used as control and percent of surviving cells were plotted.
# FIGS. 4A-4B show structures of ‘hits’ identified in WEE1 epigenetic inhibitor screen. […] The reaction mix was then subjected to immunoprecipitated with WEE1 antibodies, followed by immunoblotting with pTyr antibodies. […] In addition, the lysates were also subjected to immunoblotting with actin antibodies (bottom panel).
# FIGS. 7A-7C show identification of WEIN-159 as a potent WEE1 epigenetic inhibitor. […] In addition, lysates were immunoprecipitated with pY37-H2B antibodies, followed by immunoblotting with H2B antibodies (middle panel). […] The lysates were also subjected to immunoblotting with pY15-Cdc2 antibodies and were immunoprecipitated with pY37-H2B antibodies, followed by immunoblotting with H2B antibodies (middle panels). In addition, the lysates were also subjected to immunoblotting with H2B antibodies (bottom panel). […] The lysates were also subjected to immunoblotting with pY15-Cdc2 antibodies and were immunoprecipitated with pY37-H2B antibodies, followed by immunoblotting with H2B antibodies (middle panels). In addition, the lysates were also subjected to immunoblotting with actin antibodies (bottom panel).
# Identification of compounds with WEE1 epigenetic inhibitory role: 14 ‘hits’ that were identified in the screen are shown in FIG. 1. These compounds were further tested for their ability to inhibit WEE1 epigenetic activity. Prostate cancer derived LNCaP cells were treated with 3 uM of compounds for 48 hours. Cells were harvested, lysates were prepared, and WEE1 epigenetic activity was detected by determining histone H2B Tyr37-phopshorylation (pY37-H2B). Lysates were also assessed for WEE1 cell cycle inhibitory activity by determining Cdc2 Tyr15-phosphorylation (pY15-Cdc2). […] These are named as ‘Cell Cycle’ inhibitors. […] These compounds are the ‘Epigenetic’ inhibitors.
# [3] = tested on: Cdc2 Tyr15-phosphorylation (pY15-Cdc2); assay: WEE1 cell cycle inhibitory activity in cells: pY15-Cdc2 immunoblot; assay type: cell-based, human; conditions: LNCaP cells, 3 uM, 48 hours (FIG. 2A)
# Source text: FIGS. 2A-2B show identification of 3 distinct types of inhibitors. […] In addition, the lysates were also subjected to by immunoblotting with […]-Cdc2 or actin antibodies (middle and bottom panels). […] The number vehicle treated cells were used as control and percent of surviving cells were plotted. […] In addition, the lysates were also subjected to immunoblotting with actin antibodies (bottom panel). Identification of compounds with WEE1 epigenetic inhibitory role: 14 'hits' that were identified in the screen are shown in FIG. 1. These compounds were further tested for their ability to inhibit WEE1 epigenetic activity. Prostate cancer derived LNCaP cells were treated with 3 uM of compounds for 48 hours. […] Lysates were also assessed for WEE1 cell cycle inhibitory activity by determining Cdc2 Tyr15-phosphorylation ([…]-Cdc2). […] These are named as 'Cell Cycle' inhibitors. […] These compounds are the 'Epigenetic' inhibitors.
# [4] = tested on: IDH2 mRNA in melanoma cell line WM66; assay: IDH2 mRNA qRT-PCR in WM66 cells; assay type: cell-based; conditions: 10 uM, 16 hr
# Protocol: (§1) WM66 cells (FIG. 5A) or primary melanocytes (FIG. 5B) were treated with vehicle or compounds (10 uM) for 16 hr. Total RNA was isolated followed by qRT-PCR with IDH2 and actin primers. FIG. 5C indicated cells were treated with vehicle or compounds (10 uM) for 16 hr. Total genomic DNA was isolated, slot-blotted onto a nitrocellulose membrane, followed by blotting with 5-hmC antibodies (top panels). Blots were also stained with methylene blue, to determine equal loading of DNA (bottom panel).
# (§2) Identification of 55152 (18-B3) scaffold as a WEE1 epigenetic inhibitor: Two major hits, 367416 (16-G9) and 55152 (18-B3) were taken up for further characterization. […] Accordingly, melanoma cell line WM66 and primary melanocytes were treated with inhibitors and IDH2 mRNA levels were measure by real time PCR.
# [5] = tested on: 5hmC levels; assay: 5-hmC slot blot of genomic DNA; assay type: cell-based; conditions: 10 uM, 16 hr
# Protocol: as §1, §2
# [6] = LogD; assay type: physicochemical; conditions: pH 7.4
# Protocol: (§3) ADME studies with 55152 (18-B3) and 367416 (16-G9): The solubility, microsome stability and plasma stability of these two compounds were also determined (Table 2).
# [7] = Plasma Stability, Human; assay type: in vitro ADME
# Protocol: as §3
# [8] = molecular target: T1, Wee2 KD (Homo sapiens, UniProt P0C1S8); assay: Differential Scanning Fluorimetry (DSF), Wee2 KD; assay type: binding; conditions: kinase domain purified from HEK293T cells
# T1 construct: WEE1 & WEE2 (as control) kinase domains from mammalian cells (HEK293T cells) were purified
# T1 sequence (P0C1S8 212-486): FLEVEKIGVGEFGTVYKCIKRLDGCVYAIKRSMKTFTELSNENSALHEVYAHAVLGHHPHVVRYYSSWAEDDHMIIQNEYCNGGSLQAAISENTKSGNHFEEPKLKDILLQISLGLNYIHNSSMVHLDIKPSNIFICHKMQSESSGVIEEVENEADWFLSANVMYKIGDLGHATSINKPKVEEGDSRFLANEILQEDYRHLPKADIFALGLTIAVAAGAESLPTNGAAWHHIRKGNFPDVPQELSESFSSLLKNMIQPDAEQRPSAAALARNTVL
# Protocol: Binding study of WEE1 epigenetic inhibitors: To identify the precise binding region/domain of WEE1 epigenetic inhibitors, WEE1 & WEE2 (as control) kinase domains from mammalian cells (HEK293T cells) were purified. The binding of inhibitors was assessed using Differential Scanning Fluorimetry (DSF).
# [9] = molecular target: full length human WEE1 kinase (Homo sapiens, UniProt P30291); assay: ELISA based assay: WEE1 phosphorylation of biotinylated H2B peptide spanning Tyr37; assay type: biochemical; design: A full length human WEE1 kinase that was enzymatically active was purified from insect cell; conditions: Table 1; several values in a cell are repeat determinations
# Sequence of full length human WEE1 kinase (P30291 whole entry): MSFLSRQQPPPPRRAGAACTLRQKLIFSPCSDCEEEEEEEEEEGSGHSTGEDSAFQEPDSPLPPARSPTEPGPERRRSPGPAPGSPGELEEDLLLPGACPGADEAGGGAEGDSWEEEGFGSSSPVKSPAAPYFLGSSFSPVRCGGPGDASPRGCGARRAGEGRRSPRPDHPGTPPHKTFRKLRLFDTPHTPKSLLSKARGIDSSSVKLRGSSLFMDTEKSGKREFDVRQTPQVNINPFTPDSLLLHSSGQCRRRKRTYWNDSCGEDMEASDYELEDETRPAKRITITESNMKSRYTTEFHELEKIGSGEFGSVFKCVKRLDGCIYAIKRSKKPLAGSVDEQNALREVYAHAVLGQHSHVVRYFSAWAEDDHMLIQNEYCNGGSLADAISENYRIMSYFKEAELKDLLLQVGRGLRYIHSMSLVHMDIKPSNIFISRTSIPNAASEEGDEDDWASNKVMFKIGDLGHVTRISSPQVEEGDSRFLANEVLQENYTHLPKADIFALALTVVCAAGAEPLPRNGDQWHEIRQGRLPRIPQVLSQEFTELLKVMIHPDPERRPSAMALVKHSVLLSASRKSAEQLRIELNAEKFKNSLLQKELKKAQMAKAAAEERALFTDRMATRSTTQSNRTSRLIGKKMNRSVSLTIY
# Source text: Designing of a Novel inhibitor Screening Platform: […] A full length human WEE1 kinase that was enzymatically active was purified from insect cell. […] NCI diversity set compound library ( 1600 compounds) was used for the screening.
compound,measurement,setting,value
"Nc1ccc(NC(=O)c2ccc(C(=O)Nc3ccc(N)cc3)cc2)cc1 [SG5-061, N^1,N^4-bis(4-aminophenyl)terephthalamide]",IC50,[1],1000 nM
same,H2B Tyr37-phosphorylation (pY37-H2B),"[2]; 3 uM, 48 hours (FIG. 2A)",specifically suppressed H2B Tyr37-phosphotylation
same,H2B Tyr37-phosphorylation,"[2]; 10 μM, 12 hours (FIG. 4B)",complete loss of H2B Tyr37-phosphorylation
same,Cdc2 Tyr15-phosphorylation (pY15-Cdc2),[3],did not affect Cdc2 Tyr15-phosphotylation
same,IDH2 mRNA levels,[4],Significant increase in IDH2 mRNA levels
same,5hmC levels,[5],Corresponding increase in 5hmC levels
same,logD,[6],0.98
same,Plasma Stability % remaining @ 3 hrs Human,[7],58.57%
same,ΔTm for Wee2 KD (° C.),[8],0.1 °C
same,ΔTm for Wee2 KD (° C.),[8]; listed as 55152 (18-B3),1.1 °C
same,ELISA Inhibition (%),[9],112% and 81% and 82% and 87% and 83% and 100% and 106%
